Reference: patent US5234815A, “Monoclonal antibodies against cytosolic thyroid hormone binding protein” (The United States of America as represented by the …, priority 1991, dated 1993)

How the values were obtained:
p58 = molecular target: T1, p58 (Homo sapiens, UniProt P14618); experiment: T3 binding in subcellular fractions of A431 cells; settings: for Specific [125I]T3 bound: 50 ug protein
T1 construct: endogenous in cells; host or cells: A431 cells
Description: Overnight cultures of A431 cells (1×10^7 cells/150 mm dish) were washed with 30 ml of PBS (Ca^++ and Mg^++ free). Cells were harvested with a rubber policeman and pelleted. The cell pellet was resuspended in 2 ml of homogenization buffer (0.25M sucrose, 20 mM Tris, 1.1 mM MgCl2, pH 7.85) and homogenized in a tight dounce homogenizer. After centrifugation at 800 xg for 10 min, the supernatant was further centrifuged at 110,000 xg for 90 min at 4° C. (supernatant A). The pellet was resuspended by pipetting in 1 ml of the homogenizing buffer. The suspension was centrifuged at 110,000 xg for 90 min (supernatant B). The pellet was extracted with 1 ml of 3 mM CHAPS by stirring for 30 min. The suspension was centrifuged at 110,000 xg for 90 min (supernatant C).

purified p58 = molecular target: T2, purified p58 (Homo sapiens, UniProt P14618); experiment: Binding of [125I]T3 and analogs to purified p58; settings: competition with [125I]T3, equilibrium conditions
T2 construct: p 58 was purified from A431 cells; endogenous in cells; host or cells: A431 cells (purified native protein)
Description: Binding data were analyzed by least squares analysis as described in Horiuchi et al, supra.

T1 sequence (P14618 2-531 limits assumed): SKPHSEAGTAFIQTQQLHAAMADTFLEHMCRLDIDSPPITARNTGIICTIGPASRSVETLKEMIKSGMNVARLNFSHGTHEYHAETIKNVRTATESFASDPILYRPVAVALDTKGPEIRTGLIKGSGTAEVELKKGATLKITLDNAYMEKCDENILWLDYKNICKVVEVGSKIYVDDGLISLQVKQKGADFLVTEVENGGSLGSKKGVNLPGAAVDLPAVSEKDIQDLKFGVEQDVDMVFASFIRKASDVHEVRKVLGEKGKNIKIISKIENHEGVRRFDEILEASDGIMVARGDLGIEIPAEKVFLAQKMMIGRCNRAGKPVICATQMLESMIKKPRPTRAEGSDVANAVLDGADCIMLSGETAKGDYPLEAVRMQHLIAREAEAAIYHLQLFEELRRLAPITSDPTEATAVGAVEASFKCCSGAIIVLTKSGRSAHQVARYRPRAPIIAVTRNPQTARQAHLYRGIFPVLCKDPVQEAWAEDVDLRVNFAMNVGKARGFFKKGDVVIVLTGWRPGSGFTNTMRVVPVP
T2 sequence (P14618 whole entry): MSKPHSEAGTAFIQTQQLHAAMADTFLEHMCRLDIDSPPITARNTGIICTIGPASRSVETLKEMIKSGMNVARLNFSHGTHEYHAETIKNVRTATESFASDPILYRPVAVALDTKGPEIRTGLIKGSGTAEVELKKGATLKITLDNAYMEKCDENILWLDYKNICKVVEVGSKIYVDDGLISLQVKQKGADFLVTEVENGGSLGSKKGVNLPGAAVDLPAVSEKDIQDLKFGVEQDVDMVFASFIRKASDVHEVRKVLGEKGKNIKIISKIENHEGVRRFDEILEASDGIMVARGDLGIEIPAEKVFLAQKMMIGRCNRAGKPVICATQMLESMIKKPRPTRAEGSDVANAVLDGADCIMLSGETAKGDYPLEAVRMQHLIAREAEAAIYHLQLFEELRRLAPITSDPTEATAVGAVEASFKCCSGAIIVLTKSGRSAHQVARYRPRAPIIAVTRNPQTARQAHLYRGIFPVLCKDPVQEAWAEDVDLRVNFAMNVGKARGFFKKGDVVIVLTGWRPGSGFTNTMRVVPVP

Compound: N[C@@H](Cc1cc(I)c(Oc2ccc(O)c(I)c2)c(I)c1)C(=O)O [[^125 I]T3]
- Specific [125I]T3 bound, % of total (p58; 110,000 xg Pellet): 6 % of total
- Specific [125I]T3 bound (p58; 110,000 xg Pellet): 0.17 dpm(× 10^-4)
- Specific [125I]T3 bound, % of total (p58; 110,000 xg Supernatant): 94 % of total
- Specific [125I]T3 bound (p58; 110,000 xg Supernatant): 2.5 dpm(× 10^-4)

Compound: N[C@@H](Cc1ccc(Oc2cc(I)c(O)c(I)c2)c(I)c1)C(=O)O [reverse-T3]
- affinity for p58, fold less than that of T3 (purified p58): 10 fold

Compound: N[C@@H](Cc1cc(I)c(Oc2cc(I)c(O)c(I)c2)c(I)c1)C(=O)O [T4]
- affinity for p58 compared with T3 (purified p58): affinity similar to that of T3
